≈ marks a conversion by molar mass, not a printed value.
Legend:
[1] = assay type: in vivo; settings: formulated in 20% DMA, 40% proplyeneglycol in 8% Cremophor-EL; apparent embolitic effect from drug precipitation
Method: The literature vehicle reported for formulation of 5-chloro-2-(2,4-difluoro-3-aminocarbonylphenoxy)methylpyridylthiazole for i.v. administration consists of 20% DMA, 40% polyethylene glycol and 40% saline. […] Mice that were treated 15 minutes later with a second injection consisting of 150 μl of this vehicle died. In addition, concentrations of 5-chloro-2-(2,4-difluoro-3-aminocarbonylphenoxy)methylpyridylthiazole at or above 2.2 mg/ml in this vehicle were not completely dissolved and existed as a suspension (in a 28 g mouse this would be 15.7 mg/kg). A number of other formulations with 5-chloro-2-(2,4-difluoro-3-aminocarbonylphenoxy)methyl benzothiazole were tried, such as 20% DMA, 40% proplyeneglycol in 8% Cremophor-EL. […] Because of the limited solubility and the absence of a suitable vehicle, the literature study where it was reported that a 30 mg/kg dose of 5-chloro-2-(2,4-difluoro-3-aminocarbonylphenoxy)methylpyridylthiazole was delivered to mice in a single injection could not be repeated. […] In some instances the addition of 10-30% propylene glycocol did allow for greater retention of solubility of the test compounds. Example 4 was also found to formulate well at a 2.0 mg/ml concentration in 10 mM malic acid with 20% propylene glycol and with 10 mM p-toluenesulphonate alone. Example 6 did formulate well in 10 mM citrate alone at a concentration of 2.0 mg/ml. […]

[2] = tested on: Bacillus subtilis FG347 bacteria; assay: Test C FtsZ Z-ring assay (GFP-ZapA fluorescence microscopy); assay type: cell-based; settings: compound at 3 μg/mL
Method: Test C. FtsZ Z-Ring Assay.
The impact of a compound on FtsZ Z-ring formation can be determined using a strain of Bacillus subtilis (FG347) that expresses a green fluorescent protein (GFP)-ZapA fusion protein upon induction with xylose. ZapA is known to associate with FtsZ Z-rings in B. subtilis and, thus, serves as a marker for Z-ring formation. In this assay, log-phase FG347 bacteria are treated with differing concentrations of compound for time periods ranging from 1 to 6 hours. At each time point, aliquots are taken from each culture and then viewed with a fluorescence microscope.
Examples 4 and 6-8 were evaluated for their impact on the polymerization of Staphylococcus aureus FtsZ. […] In addition, Example 5 and 7 were also examined for their impact on FtsZ Z-ring formation in Bacillus subtilis FG347 bacteria. […] These collective results highlight the compounds of the invention as FtsZ-targeting antibacterial agents.

MSSA = assay: Test A antibacterial assay, broth microdilution MIC; assay type: cell-based; settings: Staphylococcus aureus, growth read after 24 to 48 hours at OD 600 nm
Method: Test A. Antibacterial Assay. Antibacterial activity can be determined as per Clinical and Laboratory Standards Institute (CLSI) guidelines using a broth microdilution assay in which log-phase bacteria are grown at 37° C. in appropriate medium containing two-fold serial dilutions of a compound to yield final concentrations ranging from 256 to 0.06 μg/mL. For determination of minimal inhibitory concentration (MIC) values, bacterial growth is monitored after 24 to 48 hours by measuring optical density at 600 nm.

Row | Compound | outcome of mice treated with the formulation [1] | bacterial morphology induced [2] | impact on FtsZ Z-ring formation [2] | MIC (MSSA) [µg/mL]
1 | NC(=O)c1c(F)ccc(OCc2nc3cc(Cl)ccc3s2)c1F [5-chloro-2-(2,4-difluoro-3-aminocarbonylphenoxy)methyl benzothiazole] | died within a few minutes | – | – | –
2 | O=C(NCN1CCOCC1)c1c(F)ccc(OCc2nc3cc(Cl)cnc3s2)c1F [Example 7] | – | elongated, filamentous morphology | inhibit FtsZ Z-ring formation | 0.5 (≈ 1.1 µM)
